This passage reports target mRNA inhibition results from the OligoGym collection.

Several values for one entry are separate records, joined by “and”; a condition that tells them apart may be missing. Equal entries are not always repeated. After the bases stand the sugars from the 5' end (letter, count) and the backbone: PS all phosphorothioate, else s phosphorothioate and o phosphodiester by linkage. Methylation of C is not given here. e = 2'-O-(2-methoxyethyl) (MOE); k = constrained ethyl (cEt); d = 2'-deoxy (DNA)

The series has as its target IRF4. Particulars: ASO.

On to “ACGTGTGCTTGCCAAG (sugars kkdddddddddkdkdk, PS)”, for which the target mRNA inhibition is 15% (MM.1R, 0.0625 µM); 43% (MM.1R, 0.25 µM); 75% and 66% and 56% (MM.1R, 1 µM); 77% (MM.1R, 4 µM).

For GAAGTTTACTAACTGG (sugars k3 d10 k3, PS), the target mRNA inhibition (SK-MEL-28, 4 µM) is 57%. Same read-out and setting: under GCATCTAAGGCAAGCT (sugars k3 d10 k3, PS) stands 34%.

Regarding “TTATATACTGGTTGGT (sugars kdddddddddkekeke, PS)”, the target mRNA inhibition (MM.1R, 1 µM) was determined as 20%. CTACAAGCAGTCATCA (sugars k3 d10 k3, PS): the target mRNA inhibition (SK-MEL-28, 4 µM) came to 44%. Still for that read-out and setting: with GCACAGACATACCTAC (sugars k3 d10 k3, PS) the figure was 46%. With CTGTTACCGATGCTTC (sugars k3 d10 k3, PS), the target mRNA inhibition (MM.1R, 0.0625 µM) was 18%; the target mRNA inhibition (MM.1R, 0.25 µM) stood at 36%; the target mRNA inhibition (MM.1R, 1 µM) is 56% and 55%; the target mRNA inhibition (MM.1R, 4 µM) came out at 82%. GAGTCACCTGGAATCT (sugars k3 d10 k3, PS): the target mRNA inhibition (SK-MEL-28, 4 µM) is 43%. Still for that read-out and setting: with GTGGGTCCCAAGATCG (sugars k3 d10 k3, PS) the figure was 40%. On the same count and under the same terms, under GGGCATCCTCAGTTAC (sugars k3 d10 k3, PS) stands 33%; under ACGCACACACAAGTGG (sugars k3 d10 k3, PS), 59%. Still for that read-out and setting: under GGTATACTTAAGCAAG (sugars k3 d10 k3, PS) stands 68%; under ACATTACTGAGATATC (sugars k3 d10 k3, PS), 16%. For the sequence AAATCACGAGGTTGCC (sugars k3 d10 k3, PS), the target mRNA inhibition (MM.1R, 1 µM) was 21%. In the case of GGCCTTCCTGGCGGAG (sugars k3 d10 k3, PS), the target mRNA inhibition (SK-MEL-28, 4 µM) turned out to be 22%.

Consider GAGGAAGTCCCCTTCC (sugars k3 d10 k3, PS), for which the target mRNA inhibition (MM.1R, 1 µM) came to 4%. The same measure, in the same setting: under “TTTATGTTAGCCAATT (sugars kddddddddddkekek, PS)” stands 0% and -12%. Still for that read-out and setting: with CGTGATCTGAGACTAC (sugars k3 d10 k3, PS) the figure was 25% and 36%. Consider TCTCCGCCTCGGCCGC (sugars k3 d10 k3, PS), for which the target mRNA inhibition (SK-MEL-28, 4 µM) is 41%. As to TAAATCACCCTGGTCA (sugars k3 d10 k3, PS), for the setting “SK-MEL-28, 4 µM”, the target mRNA inhibition was determined as 22%. Regarding CGGACACGCCCGACCC (sugars k3 d10 k3, PS), the target mRNA inhibition (MM.1R, 1 µM) was found to be 7%. On the same count and under the same terms, under “GGAAGTTTACACTGGA (sugars kdddddddddkekeke, PS)” stands 32%. Same read-out and setting: with TTTCTAATGGTGCTCC (sugars k3 d10 k3, PS) the figure was 4%.

In the case of TGGCTCATGGACATCT (sugars k3 d10 k3, PS), for the setting “SK-MEL-28, 4 µM”, the target mRNA inhibition came out at 32%. With ATACACACCCTCGGGC (sugars k3 d10 k3, PS), where the note is “MM.1R, 1 µM”, the target mRNA inhibition was -10%. For TGACTCCATGAGGTTT (sugars k3 d10 k3, PS), for the setting “SK-MEL-28, 4 µM”, the target mRNA inhibition stood at 65%. In the case of AGGCACCGCACTCCGG (sugars k3 d10 k3, PS), for the setting “MM.1R, 1 µM”, the target mRNA inhibition was -13%.

Take GCAATTGAAATGGAGC (sugars k3 d10 k3, PS): the target mRNA inhibition (SK-MEL-28, 4 µM) stood at 24%. On to CTGTCACCTGGCAACC (sugars k3 d10 k3, PS), for which the target mRNA inhibition (MM.1R, 1 µM) worked out at 11%.

As for ACACGCCCGACCCTCC (sugars k3 d10 k3, PS), the target mRNA inhibition (MM.1R, 1 µM) stood at 4%. Consider ACAAGAACTGCTGTGT (sugars k3 d10 k3, PS), for which, for the setting “SK-MEL-28, 4 µM”, the target mRNA inhibition was 7%. Turning to TTTCTACAAGGTCTGA (sugars k3 d10 k3, PS), the target mRNA inhibition (MM.1R, 1 µM) is 3%. Still for that read-out and setting: under “AGCATTTTATCATCCG (sugars e1 k2 d9 k2 e2, PS)” stands 43%.

For ATTCACACTGCCGTGA (sugars k3 d10 k3, PS), under “SK-MEL-28, 4 µM”, the target mRNA inhibition is 34%. The same measure, in the same setting: with CAGCATATTACAAACG (sugars k3 d10 k3, PS) the figure was 58%; with AGCCTTCCTGCTCAGA (sugars k3 d10 k3, PS), 55%. Same read-out and setting: under GTAGATCCTGCTCTGG (sugars k3 d10 k3, PS) stands 45%; under AGCTCCACTGTTAAAG (sugars k3 d10 k3, PS), 44%. Same read-out and setting: with ATATCCTGTAGTATGA (sugars k3 d10 k3, PS) the figure was 57%. As to “TTCATGTAAAGTCTGC (sugars kkdddddddddkekek, PS)”, the target mRNA inhibition (MM.1R, 1 µM) is 10% and 12%. Consider TACTAACTGGCTTCCA (sugars k3 d10 k3, PS), for which the target mRNA inhibition (SK-MEL-28, 4 µM) worked out at 28%. Take “CAGTGATGTCAGGTTT (sugars kkkddddddddkekek, PS)”: the target mRNA inhibition is, setting by setting: (MM.1R, 0.074 µM) 19%; (MM.1R, 0.222 µM) 40%; (MM.1R, 0.666 µM) 56%; (MM.1R, 1 µM) 56%; (MM.1R, 2 µM) 74%.

As to TCTGAGGGTCTGGAAA (sugars k3 d10 k3, PS), where the note is “SK-MEL-28, 4 µM”, the target mRNA inhibition was 9%. Still for that read-out and setting: with AGCATAGCATTATCTA (sugars k3 d10 k3, PS) the figure was 34%; with AGGTAATCTGTATAGT (sugars k3 d10 k3, PS), 62%; with TGTATACATCACTGCA (sugars k3 d10 k3, PS), 63%. Take “AGCATTTTATCATCCG (sugars kdddddddddkekeke, PS)”: for the setting “MM.1R, 1 µM”, the target mRNA inhibition was found to be 24%. Take GGGCAACAGTTCAAGT (sugars k3 d10 k3, PS): the target mRNA inhibition (SK-MEL-28, 4 µM) is 36%.

For CAGAAACCCTCATCAC (sugars k3 d10 k3, PS), the target mRNA inhibition (SK-MEL-28, 4 µM) turned out to be 4%. Consider TTCATTAGAAAGCCCT (sugars k3 d10 k3, PS), for which the target mRNA inhibition (MM.1R, 1 µM) was -22%. Consider TGCGAATGTGCCTTGT (sugars k3 d10 k3, PS), for which the target mRNA inhibition (SK-MEL-28, 4 µM) came to 43%. Turning to TTTAAGAGGCGACTGC (sugars k3 d10 k3, PS), where the note is “MM.1R, 1 µM”, the target mRNA inhibition was -100%. On to AGGAACGAAGAGCAGG (sugars k3 d10 k3, PS), for which the target mRNA inhibition (SK-MEL-28, 4 µM) is 43%. Regarding TTGTACAGGACAGGTA (sugars k3 d10 k3, PS), the target mRNA inhibition (SK-MEL-28, 4 µM) is 28%.

Turning to GAGTCCCCGGCTCCTC (sugars k3 d10 k3, PS), the target mRNA inhibition (SK-MEL-28, 4 µM) stood at 25%. For the sequence “AGGCACATCAATGTTT (sugars kdddddddddkekeke, PS)”, the target mRNA inhibition (MM.1R, 1 µM) was -9% and 3%.

Take TGTAGGGCGACTAACT (sugars k3 d10 k3, PS): where the note is “SK-MEL-28, 4 µM”, the target mRNA inhibition worked out at 21%. The same measure, in the same setting: with CCTCAGGAAATGTCCA (sugars k3 d10 k3, PS) the figure was 37%. On to TTCAGTGCTCACTGCT (sugars k3 d10 k3, PS), for which the target mRNA inhibition (SK-MEL-28, 4 µM) came to 69%. Same read-out and setting: with TCACGAGCACCTCAGA (sugars k3 d10 k3, PS) the figure was 36%; with GGGAAGTGGACCCCAT (sugars k3 d10 k3, PS), 9%; with ACCTACAAGCAGTCAT (sugars k3 d10 k3, PS), 46%.

For “AAGCTTGATAAAGGCT (sugars kkkdddddddddkeke, PS)”, where the note is “MM.1R, 1 µM”, the target mRNA inhibition is -18%. Consider TGCATCTATAAGATGT (sugars k3 d10 k3, PS), for which the target mRNA inhibition (SK-MEL-28, 4 µM) came out at 32%. Regarding TATAGAATTAGGTGCT (sugars k3 d10 k3, PS), the target mRNA inhibition (SK-MEL-28, 4 µM) came to 40%. The same measure, in the same setting: with AACAGTAAGAGGGCAG (sugars k3 d10 k3, PS) the figure was 63%; with CTAGAAAGTGATGCTC (sugars k3 d10 k3, PS), 39%. For TGGGACATTGGTACGG (sugars k3 d10 k3, PS), the target mRNA inhibition came out at 4% (MM.1R, 0.074 µM); 2% (MM.1R, 0.222 µM); 13% (MM.1R, 0.666 µM); 34% (MM.1R, 2 µM); 69% (SK-MEL-28, 4 µM). Regarding GCACTGGCATCGAGAC (sugars k3 d10 k3, PS), under “SK-MEL-28, 4 µM”, the target mRNA inhibition came out at 57%.

Regarding CGCTGAACTGAAATCT (sugars k3 d10 k3, PS), the target mRNA inhibition (SK-MEL-28, 4 µM) stood at 37%. As for CCAAAGCATAGAGTCA (sugars k3 d10 k3, PS), the target mRNA inhibition (SK-MEL-28, 4 µM) amounted to 58%.

On to GGCCTGAGTTACCGCA (sugars k3 d10 k3, PS), for which the target mRNA inhibition (MM.1R, 1 µM) was determined as 8%.

For the sequence CTTCTTTATAGTAGGT (sugars k3 d10 k3, PS), the target mRNA inhibition (SK-MEL-28, 4 µM) is 20%. Still for that read-out and setting: under AAATACGACAACTTTC (sugars k3 d10 k3, PS) stands 21%. “ATGTGATAGCTGAGCT (sugars kkdddddddddkdkdk, PS)”: the target mRNA inhibition (MM.1R, 1 µM) worked out at 27%.

Regarding “ATTATATACTGGTTGG (sugars kddddddddddkekek, PS)”, the target mRNA inhibition (MM.1R, 1 µM) was found to be 22%. Consider CATAACACGGTGTTGA (sugars k3 d10 k3, PS), for which, where the note is “SK-MEL-28, 4 µM”, the target mRNA inhibition came to 36%. Still for that read-out and setting: with GAGCTGTGATGAGCTT (sugars k4 d8 k4, PS) the figure was 5%. For the sequence AATGGATAGTTTCTCA (sugars k3 d10 k3, PS), the target mRNA inhibition by setting is: (MM.1R, 0.0625 µM) -2% and -14%; (MM.1R, 0.074 µM) 11%; (MM.1R, 0.222 µM) 8%; (MM.1R, 0.25 µM) 6% and 5%; (MM.1R, 0.666 µM) 23%; (MM.1R, 1 µM) 21% and 36%. Further, the target mRNA inhibition is 45% (MM.1R, 2 µM); 45% and 50% (MM.1R, 4 µM); 63% (SK-MEL-28, 4 µM). Turning to CCTTGAAGAGCGCGGC (sugars k3 d10 k3, PS), the target mRNA inhibition (SK-MEL-28, 4 µM) came out at 24%. Still for that read-out and setting: under AGTCACCTGGAATCTT (sugars k3 d10 k3, PS) stands 47%. Consider TCCGAGCTCGGCCCCC (sugars k3 d10 k3, PS), for which, for the setting “MM.1R, 1 µM”, the target mRNA inhibition was -10%. As to “TAGTATGAGAAACGGC (sugars e1 k2 d9 k2 e2, PS)”, under “MM.1R, 1 µM”, the target mRNA inhibition is 38%. As to ATGACATGCTTTGTCC (sugars k3 d10 k3, PS), the target mRNA inhibition (SK-MEL-28, 4 µM) turned out to be 46%. Consider TTACCGATGCTTCAAG (sugars k3 d10 k3, PS), for which the target mRNA inhibition (MM.1R, 1 µM) is 16% and 19%. For the sequence GGCAAGTTTTCTCTGT (sugars k3 d10 k3, PS), the target mRNA inhibition (SK-MEL-28, 4 µM) is 36%.
